{
  "source": "patent US8846607B2",
  "about": "“Particles for treatment of pulmonary infection” (President and Fellows of Harvard College, priority 2004, dated 2014)",
  "origin": "cited, not measured here",
  "tested_on": "non-replicating TB",
  "conditions": "after one month, non-replicating TB in vitro",
  "data": [
    {"substance": "capreomycin", "values": [
      {"measurement": "log decrease in colony forming units (CFU)", "value": "one to two"}
    ]}
  ]
}
